Test results published in paper PMC12041661, “Dual MNK/VEGFR2 Inhibitor JDB153 Enhances Immunotherapeutic Efficiency and Chemosensitivity in Lung Cancer” (MedComm, 2025).

Tests used:
VEGFR2 = target: T1, VEGFR2 (Homo sapiens, UniProt P35968); experiment: radiometric kinase assay; format: biochemical
T1 construct: gene KDR

MNK1 = target: T2, MNK1 (Homo sapiens, UniProt Q9BUB5); experiment: radiometric kinase assay; format: biochemical
T2 construct: gene MKNK1
T2 sequence (Q9BUB5 whole entry): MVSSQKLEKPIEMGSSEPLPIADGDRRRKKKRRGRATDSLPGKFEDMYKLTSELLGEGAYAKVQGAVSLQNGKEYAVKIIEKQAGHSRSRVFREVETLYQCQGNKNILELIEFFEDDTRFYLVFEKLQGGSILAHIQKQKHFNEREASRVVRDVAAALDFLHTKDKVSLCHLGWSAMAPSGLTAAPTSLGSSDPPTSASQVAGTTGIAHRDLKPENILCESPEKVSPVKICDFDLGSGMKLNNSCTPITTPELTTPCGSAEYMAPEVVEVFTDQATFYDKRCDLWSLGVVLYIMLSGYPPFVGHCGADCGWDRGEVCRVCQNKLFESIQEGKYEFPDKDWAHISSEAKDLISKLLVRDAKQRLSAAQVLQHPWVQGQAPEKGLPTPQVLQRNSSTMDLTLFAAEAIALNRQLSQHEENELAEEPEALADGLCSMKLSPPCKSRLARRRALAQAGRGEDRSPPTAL

T1 sequence (P35968 20-1356): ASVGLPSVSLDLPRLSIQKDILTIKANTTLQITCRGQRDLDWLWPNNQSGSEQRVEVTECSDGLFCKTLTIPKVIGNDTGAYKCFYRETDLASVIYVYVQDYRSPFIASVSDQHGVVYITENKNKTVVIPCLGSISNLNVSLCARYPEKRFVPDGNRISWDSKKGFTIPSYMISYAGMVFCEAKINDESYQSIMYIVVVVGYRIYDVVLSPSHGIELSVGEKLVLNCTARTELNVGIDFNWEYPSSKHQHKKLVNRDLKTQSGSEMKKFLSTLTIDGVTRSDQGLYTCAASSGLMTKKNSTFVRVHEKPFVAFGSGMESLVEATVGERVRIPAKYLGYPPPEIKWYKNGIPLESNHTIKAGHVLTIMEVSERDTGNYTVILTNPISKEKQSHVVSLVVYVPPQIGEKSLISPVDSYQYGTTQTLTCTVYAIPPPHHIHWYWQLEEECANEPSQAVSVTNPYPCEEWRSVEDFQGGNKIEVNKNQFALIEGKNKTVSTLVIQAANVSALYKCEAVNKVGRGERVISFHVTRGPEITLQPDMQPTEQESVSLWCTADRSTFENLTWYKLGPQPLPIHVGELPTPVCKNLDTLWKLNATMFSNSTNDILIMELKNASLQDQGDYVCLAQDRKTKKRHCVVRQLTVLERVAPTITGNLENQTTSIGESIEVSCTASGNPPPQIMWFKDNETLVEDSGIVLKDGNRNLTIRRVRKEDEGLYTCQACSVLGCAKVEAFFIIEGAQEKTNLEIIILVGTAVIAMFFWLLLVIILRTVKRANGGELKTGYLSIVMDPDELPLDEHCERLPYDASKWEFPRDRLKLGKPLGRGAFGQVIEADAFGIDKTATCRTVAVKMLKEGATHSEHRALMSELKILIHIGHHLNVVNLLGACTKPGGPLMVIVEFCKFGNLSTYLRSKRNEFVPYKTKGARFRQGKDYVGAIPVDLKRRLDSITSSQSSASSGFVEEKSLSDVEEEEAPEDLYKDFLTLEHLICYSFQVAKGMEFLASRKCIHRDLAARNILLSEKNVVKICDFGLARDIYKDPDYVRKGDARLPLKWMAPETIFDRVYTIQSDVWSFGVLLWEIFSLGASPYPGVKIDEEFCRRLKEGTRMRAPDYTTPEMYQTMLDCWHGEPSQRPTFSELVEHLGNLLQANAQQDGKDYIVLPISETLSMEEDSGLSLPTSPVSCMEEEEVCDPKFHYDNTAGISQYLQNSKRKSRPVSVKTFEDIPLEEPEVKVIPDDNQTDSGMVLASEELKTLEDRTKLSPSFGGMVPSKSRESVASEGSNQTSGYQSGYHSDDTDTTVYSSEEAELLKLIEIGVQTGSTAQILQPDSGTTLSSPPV

Cc1cc(Nc2ncnn3cc(OCCN4CCC(F)(F)C4)c(C)c23)c(=O)n2c1C(=O)NC21CCCC1 [JDB153]
IC50 (VEGFR2): 3 nM | IC50 (MNK1): 26.6 nM
